Source: BindingDB's records for PubMed 11303071 (Banyu Pharmaceutical, 2001)

Legend:
[1] = molecular target: T1, Muscarinic acetylcholine receptor M5 (Homo sapiens, UniProt P08912)
T1 sequence (P08912 whole entry): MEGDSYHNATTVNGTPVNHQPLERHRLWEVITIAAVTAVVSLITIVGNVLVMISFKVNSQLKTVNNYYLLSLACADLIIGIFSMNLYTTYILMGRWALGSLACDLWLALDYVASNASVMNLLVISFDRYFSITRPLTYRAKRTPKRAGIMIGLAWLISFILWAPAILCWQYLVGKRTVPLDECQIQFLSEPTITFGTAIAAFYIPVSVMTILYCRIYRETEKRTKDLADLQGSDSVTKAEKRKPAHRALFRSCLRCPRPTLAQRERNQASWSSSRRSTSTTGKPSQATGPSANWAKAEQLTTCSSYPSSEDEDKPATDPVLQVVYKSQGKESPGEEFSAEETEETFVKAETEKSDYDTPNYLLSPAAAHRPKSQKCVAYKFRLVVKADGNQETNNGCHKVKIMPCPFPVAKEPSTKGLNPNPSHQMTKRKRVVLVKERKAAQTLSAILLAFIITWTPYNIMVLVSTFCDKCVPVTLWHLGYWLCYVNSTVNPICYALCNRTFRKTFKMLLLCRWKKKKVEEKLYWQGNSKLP

[2] = molecular target: T2, Muscarinic acetylcholine receptor M4 (Homo sapiens, UniProt P08173)
T2 sequence (P08173 whole entry): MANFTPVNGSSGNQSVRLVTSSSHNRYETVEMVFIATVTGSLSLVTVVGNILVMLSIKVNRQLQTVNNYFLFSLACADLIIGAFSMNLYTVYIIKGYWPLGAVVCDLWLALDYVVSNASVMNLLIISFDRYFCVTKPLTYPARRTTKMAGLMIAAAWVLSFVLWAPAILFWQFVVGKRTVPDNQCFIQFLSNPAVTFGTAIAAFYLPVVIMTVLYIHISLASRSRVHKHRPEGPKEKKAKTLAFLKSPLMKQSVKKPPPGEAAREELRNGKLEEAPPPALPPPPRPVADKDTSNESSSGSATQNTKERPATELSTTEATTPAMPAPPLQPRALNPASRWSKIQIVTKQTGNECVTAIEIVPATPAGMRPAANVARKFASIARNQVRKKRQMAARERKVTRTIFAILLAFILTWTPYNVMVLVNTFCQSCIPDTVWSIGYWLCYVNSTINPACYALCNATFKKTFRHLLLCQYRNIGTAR

[3] = molecular target: Muscarinic acetylcholine receptor M3 (Rattus norvegicus, UniProt P08483)
[4] = molecular target: T3, Muscarinic acetylcholine receptor M2 (Homo sapiens, UniProt P08172)
T3 sequence (P08172 whole entry): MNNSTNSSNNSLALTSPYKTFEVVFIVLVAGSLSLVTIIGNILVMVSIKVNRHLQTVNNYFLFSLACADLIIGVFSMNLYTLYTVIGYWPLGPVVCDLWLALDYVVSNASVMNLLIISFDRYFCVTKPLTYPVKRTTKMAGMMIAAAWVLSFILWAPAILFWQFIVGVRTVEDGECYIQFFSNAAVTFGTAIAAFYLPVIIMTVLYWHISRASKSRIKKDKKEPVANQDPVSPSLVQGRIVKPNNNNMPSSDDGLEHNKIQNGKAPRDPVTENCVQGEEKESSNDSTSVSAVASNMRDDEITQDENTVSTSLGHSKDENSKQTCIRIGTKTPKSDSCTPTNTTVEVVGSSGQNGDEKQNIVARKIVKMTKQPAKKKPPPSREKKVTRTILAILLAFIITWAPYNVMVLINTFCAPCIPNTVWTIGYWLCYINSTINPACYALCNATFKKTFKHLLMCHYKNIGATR

Sequence of Muscarinic acetylcholine receptor M3 (P08483 whole entry): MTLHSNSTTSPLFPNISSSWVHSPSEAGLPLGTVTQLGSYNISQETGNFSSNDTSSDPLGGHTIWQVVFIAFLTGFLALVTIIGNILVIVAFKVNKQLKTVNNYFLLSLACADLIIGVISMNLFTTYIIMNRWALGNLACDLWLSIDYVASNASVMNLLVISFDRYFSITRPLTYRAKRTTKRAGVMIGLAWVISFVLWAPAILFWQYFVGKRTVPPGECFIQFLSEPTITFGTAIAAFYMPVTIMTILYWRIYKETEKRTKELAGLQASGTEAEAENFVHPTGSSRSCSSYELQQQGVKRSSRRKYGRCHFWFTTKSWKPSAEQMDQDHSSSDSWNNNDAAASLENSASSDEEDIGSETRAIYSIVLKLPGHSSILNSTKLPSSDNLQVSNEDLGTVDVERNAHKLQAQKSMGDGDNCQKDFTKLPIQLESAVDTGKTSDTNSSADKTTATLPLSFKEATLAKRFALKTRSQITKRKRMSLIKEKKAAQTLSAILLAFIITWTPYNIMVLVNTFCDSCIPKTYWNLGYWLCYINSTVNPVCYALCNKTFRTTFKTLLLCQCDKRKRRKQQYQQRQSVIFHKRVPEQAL

## NC1=COC=C(CN2CCC(NC(=O)[C@](O)(c3ccccc3)[C@@H]3CCC(F)(F)C3)CC2)N1 [Compound A]
[1]
  Ki: 7.7 nM
[2]
  Ki: 15 nM
[3]
  Ki: 2.6 nM
[4]
  Ki: 540 nM

## NC(=O)C(c1ccccc1)(c1ccccc1)[C@@H]1CCN(CCc2ccc3c(c2)CCO3)C1 [Enablex]
[1]
  Ki: 2.3 nM
[2]
  Ki: 8.6 nM
